According to PMC10409285 (PLOS Pathogens, 2023):
No end group written: not given here.

Target: DP4.1 (HLA-DPA1*01:03/DPB1*04:01) (Homo sapiens, UniProt P04440+P20036)
Experiment: fluorescence polarization competition binding assay, DP4.1
Conditions: not given

Q: How did the IC50 turn out when `CC[C@H](C)[C@H](NC(=O)[C@H](C)NC(=O)[C@H](CO)NC(=O)[C@H](CCCNC(=N)N)NC(=O)CNC(=O)[C@H](C)NC(=O)[C@@H](NC(=O)[C@@H](N)CCCNC(=N)N)C(C)C)C(=O)N[C@@H](CCC(=O)O)C(=O)N[C@@H](CC(=O)O)C(=O)N[C@H](C(=O)N[C@@H](CC(C)C)C(=O)N[C@@H](Cc1ccccc1)C(=O)N[C@@H](CO)C(=O)N[C@@H](CCCCN)C(=O)N[C@@H](CC(C)C)C(=O)N[C@H](C(=O)O)C(C)C)[C@@H](C)CC` [Peptide 229E-115] was run?
A: Its IC50 is 5.99 µM.

Q: How did the IC50 turn out when `CC[C@H](C)[C@H](NC(=O)[C@H](Cc1ccccc1)NC(=O)[C@H](Cc1ccc(O)cc1)NC(=O)[C@H](CC(C)C)NC(=O)CNC(=O)[C@H](Cc1ccc(O)cc1)NC(=O)[C@@H]1CCCN1C(=O)[C@H](C)N)C(=O)N[C@@H](Cc1c[nH]cn1)C(=O)N[C@@H](Cc1ccccc1)C(=O)N[C@@H](CO)C(=O)N[C@@H](Cc1ccc(O)cc1)C(=O)N[C@H](C(=O)N1CCC[C@H]1C(=O)N[C@H](C(=O)N[C@@H](CCCCN)C(=O)O)[C@@H](C)O)C(C)C` [Peptide P6] was run?
A: The IC50 was 80.5 µM.

Q: `CC(C)C[C@H](NC(=O)CNC(=O)[C@H](CO)NC(=O)[C@@H](NC(=O)[C@@H](NC(=O)[C@@H](NC(=O)[C@H](CCCCN)NC(=O)[C@H](CO)NC(=O)[C@H](Cc1ccccc1)NC(=O)[C@H](CC(C)C)NC(=O)[C@H](CC(C)C)NC(=O)[C@H](CC(=O)O)NC(=O)[C@H](CCC(=O)O)NC(=O)[C@H](CC(C)C)NC(=O)[C@H](C)NC(=O)[C@@H](N)CO)C(C)C)C(C)C)[C@@H](C)O)C(=O)NCC(=O)O` [NL63-146] was tested. Which IC50 did it give?
A: The IC50 was 3.48 µM.

Q: With `CC[C@H](C)[C@H](NC(=O)CNC(=O)[C@H](CC(N)=O)NC(=O)[C@@H](NC(=O)[C@H](Cc1ccccc1)NC(=O)[C@H](CC(=O)O)NC(=O)[C@H](CO)NC(=O)[C@@H](N)CC(C)C)[C@@H](C)CC)C(=O)N[C@@H](Cc1ccccc1)C(=O)N[C@@H](C)C(=O)N[C@@H](CCCCN)C(=O)N[C@H](C(=O)N[C@@H](CCCCN)C(=O)N[C@@H](CC(N)=O)C(=O)N[C@H](C(=O)N[C@@H](CCCCN)C(=O)O)[C@@H](C)O)C(C)C` [Peptide P3] as the molecule, how does the IC50 read?
A: The IC50 was 3.16 µM.

Same assay, conditions: fluorescence polarization competition; soluble DP4.1-Clip 250 nM, 25 nM Alexa488 oxytocinase probe peptide, 500 nM HLA-DM, 24 h 37°C; mean of two independent experiments; read-out: Mean IC50, DPA*01:03/DPB1*04:01

Q: For `CC[C@H](C)[C@H](NC(=O)[C@H](Cc1ccccc1)NC(=O)[C@H](CO)NC(=O)[C@H](CCCNC(=N)N)NC(=O)[C@H](CCCCN)NC(=O)[C@H](CO)NC(=O)[C@@H]1CCCN1C(=O)[C@@H](N)CCCCN)C(=O)N[C@@H](CCC(=O)O)C(=O)N[C@@H](CC(=O)O)C(=O)N[C@@H](CC(C)C)C(=O)N[C@@H](CC(C)C)C(=O)N[C@@H](Cc1ccccc1)C(=O)N[C@@H](CC(N)=O)C(=O)N[C@@H](CCCCN)C(=O)N[C@H](C(=O)O)C(C)C` [S#163 (CoV2)], which IC50 is on record?
A: The IC50 was 0.29 µM.

Q: `CC(C)C[C@H](NC(=O)[C@H](Cc1ccccc1)NC(=O)[C@@H](NC(=O)[C@@H](NC(=O)CNC(=O)[C@H](Cc1c[nH]cn1)NC(=O)[C@@H]1CCCN1C(=O)[C@H](C)N)C(C)C)C(C)C)C(=O)N[C@@H](Cc1c[nH]cn1)C(=O)N[C@H](C(=O)N[C@H](C(=O)N[C@@H](Cc1ccc(O)cc1)C(=O)N[C@H](C(=O)N1CCC[C@H]1C(=O)N[C@@H](C)C(=O)N[C@@H](CCC(N)=O)C(=O)O)C(C)C)[C@@H](C)O)C(C)C` [S#212 (CoV2)] was tested. Which IC50 did it give?
A: Its IC50 is 253 µM.

Q: `CC[C@H](C)[C@H](NC(=O)[C@H](Cc1ccccc1)NC(=O)[C@@H](N)CO)C(=O)N[C@@H](CCC(=O)O)C(=O)N[C@@H](CC(=O)O)C(=O)N[C@@H](CC(C)C)C(=O)N[C@@H](CC(C)C)C(=O)N[C@@H](Cc1ccccc1)C(=O)N[C@@H](CC(N)=O)C(=O)N[C@@H](CCCCN)C(=O)N[C@H](C(=O)N[C@H](C(=O)N[C@@H](CC(C)C)C(=O)N[C@@H](C)C(=O)N[C@@H](CC(=O)O)C(=O)N[C@@H](C)C(=O)O)[C@@H](C)O)C(C)C` [S#164 (CoV2)] was tested. Which IC50 did it give?
A: The IC50 was 128 µM.

Q: Which IC50 does the source give for PSASAFFGMSRIGMEVT [N#45 (CoV2)] here?
A: The IC50 was 544 µM.
